The values below come from patent US4740233A, “Substituted 1,2,4-triazolo[1,5-a]-pyrimidine-2-sulfonamides and compositions and methods of controlling undesired vegetation and suppressing the nitrification of ammonium nitrogen in soil” (The Dow Chemical Company, priority 1986, dated 1988).

Structures are written as SMILES.

The test system of the experiment is nitrification of ammonium nitrogen. Put plainly: Suppression of nitrification of ammonium nitrogen in soil. To be noted: 27° C. As for the experimental part:
A sufficient volume of water was added to 20 g of the soil in a wide-mouth, screw-cap, 4-ounce, glass bottle, such that the moisture content of the mixture was made equal to the 1/3 bar tension value for that soil. The mixture was thoroughly mixed before sealing. […] Acetone slows the rate of soil nitrification and its concentration must be carefully controlled. Single samples of each test chemical were incubated for two weeks at 27° C.
The experiment comprised the following types of samples:
The soil samples were analyzed as follows: Sufficient ammonium sulfate extracting solution was added to the sample, such that the total volume of added water was 50 ml (included water added during sample preparation). The capped mixture was shaken 10 minutes to solubilize nitrate and the soil particulates were allowed to settle. The nitrate concentration in the water phase was determined with a nitrate-specific ion electrode such as Orion Model 93-07.
The non-nitrate nitrogen remaining (% NH4 -N remaining) in the soil after two weeks (performance value) was calculated as follows: [formula]

In the case of `Cc1cc(C)n2nc(S(=O)(=O)Nc3nccs3)nc2n1` [Compound 256], the “% NH4-N Remaining After 2 Weeks Incubation” value came out at 20% (0.01 ppm), 13% (0.1 ppm), 10% (1 ppm) and 48% (10 ppm).
For `Cc1cc(C)n2nc(S(=O)(=O)Nc3c(C)cccc3C(N)=O)nc2n1` [Compound 61], the “% NH4-N Remaining After 2 Weeks Incubation” value reads like this: (0.6 ppm) 20%; (1.25 ppm) 34%; (2.5 ppm) 65%; (5 ppm) 89%; (10 ppm) 100%.
As for `Cc1ccn2nc(S(=O)(=O)Nc3ccccc3[S+]([O-])C(F)(F)C(F)F)nc2n1` (stereo not drawn) [Compound 149], the “% NH4-N Remaining After 2 Weeks Incubation” value came out at 0% (0.6 ppm); 0% (1.25 ppm); 5% (2.5 ppm); 26% (5 ppm); 62% (10 ppm).
Take `Cc1cc(C)n2nc(S(=O)(=O)Nc3ccccc3SC(F)(F)C(F)F)nc2n1` [Compound 59]: the “% NH4-N Remaining After 2 Weeks Incubation” value runs as follows: (0.06 ppm) 11%; (0.25 ppm) 33%; (1 ppm) 51%; (4 ppm) 66%.
For `Cc1cc(C)n2nc(S(=O)(=O)Nc3ccccc3Oc3ccc(C(F)(F)F)cc3Cl)nc2n1` [Compound 97], in that order: 67%, 0%, 3% and 19%.
Take `Cc1cc(C)n2nc(S(=O)(=O)Nc3cccnc3Cl)nc2n1` [Compound 255]: the “% NH4-N Remaining After 2 Weeks Incubation” value by setting is: (0.01 ppm) 0%; (0.1 ppm) 0%; (1 ppm) 37%; (10 ppm) 72%.
On to `Cc1cc(C)n2nc(S(=O)(=O)Nc3ccccc3C(=O)N(C)C)nc2n1` [Compound 42], for which the “% NH4-N Remaining After 2 Weeks Incubation” value runs as follows: (0.01 ppm) 0%; (0.1 ppm) 0%; (1 ppm) 8%; (10 ppm) 68%.
In the case of `Cc1cc(C)n2nc(S(=O)(=O)Nc3c(C)cccc3C(=O)N(C)C)nc2n1` [Compound 62], the “% NH4-N Remaining After 2 Weeks Incubation” value runs as follows: (0.6 ppm) 0%; (1.25 ppm) 13%; (5 ppm) 55%; (10 ppm) 75%.
For `Cc1cc(C)n2nc(S(=O)(=O)Nc3c(Cl)cccc3COCc3ccccc3)nc2n1` [Compound 92], the “% NH4-N Remaining After 2 Weeks Incubation” value (0.06 ppm) came out at 0%, the “% NH4-N Remaining After 2 Weeks Incubation” value (0.25 ppm) came to 4%, the “% NH4-N Remaining After 2 Weeks Incubation” value (1 ppm) turned out to be 0% and the “% NH4-N Remaining After 2 Weeks Incubation” value (4 ppm) is 25%.
Consider `CSc1ccccc1NS(=O)(=O)c1nc2ncc(Cl)cn2n1` [Compound 115], for which the “% NH4-N Remaining After 2 Weeks Incubation” value (0.06 ppm) was found to be 37%, the “% NH4-N Remaining After 2 Weeks Incubation” value (0.25 ppm) is 41%, the “% NH4-N Remaining After 2 Weeks Incubation” value (1 ppm) was found to be 64% and the “% NH4-N Remaining After 2 Weeks Incubation” value (4 ppm) turned out to be 86%.
`Cc1cc(C)n2nc(S(=O)(=O)Nc3ccc(Cl)cc3C(=O)N(C)C)nc2n1` [Compound 43]: the “% NH4-N Remaining After 2 Weeks Incubation” value was 0% (0.01 ppm), 0% (0.1 ppm), 44% (1 ppm) and 91% (10 ppm).
Regarding `Cc1cc(C)n2nc(S(=O)(=O)Nc3cc(Cl)cc(Cl)c3)nc2n1` [Compound 24], the “% NH4-N Remaining After 2 Weeks Incubation” value runs as follows: (0.01 ppm) 0%; (0.1 ppm) 28%; (1 ppm) 65%; (10 ppm) 83%.
As for `COC(=O)c1ccccc1NS(=O)(=O)c1nc2nc(C)c3c(n2n1)CCC3` [Compound 109], the “% NH4-N Remaining After 2 Weeks Incubation” value came out at 0% (0.01 ppm), 0% (0.1 ppm), 41% (1 ppm) and 92% (10 ppm).
As for `Cc1cc(C)n2nc(S(=O)(=O)Nc3ccccc3SC(F)(F)F)nc2n1` [Compound 55], the “% NH4-N Remaining After 2 Weeks Incubation” value came out at 19% (0.06 ppm), 91% (0.25 ppm), 65% (1 ppm) and 84% (4 ppm).
Regarding `Cc1cc(Cl)c(NS(=O)(=O)c2nc3nc(C)cc(C)n3n2)c(Cl)c1` [Compound 47], the “% NH4-N Remaining After 2 Weeks Incubation” value reads like this: (0.01 ppm) 0%; (0.1 ppm) 40%; (1 ppm) 73%; (10 ppm) 92%.
For `Cc1cc(C)n2nc(S(=O)(=O)Nc3cc(C(F)(F)F)ccc3S(=O)(=O)N(C)C)nc2n1` [Compound 28], in that order: 0%, 5%, 42% and 66%.
For the molecule `O=S(=O)(Nc1c(F)cccc1Cl)c1nc2ncc(Cl)cn2n1` [Compound 116], the “% NH4-N Remaining After 2 Weeks Incubation” value runs as follows: (0.06 ppm) 27%; (0.25 ppm) 50%; (1 ppm) 57%; (4 ppm) 81%.
With `Cc1cc(C)n2nc(S(=O)(=O)Nc3ccccc3SC(C)(C)C)nc2n1` [Compound 80], the “% NH4-N Remaining After 2 Weeks Incubation” value is, setting by setting: (0.06 ppm) 0%; (0.25 ppm) 0%; (1 ppm) 20%; (4 ppm) 43%.
For `Cc1nc2nc(S(=O)(=O)Nc3ccccc3C(=O)OC(C)C)nn2c2c1CCC2` [Compound 110], the “% NH4-N Remaining After 2 Weeks Incubation” value is 0% (0.01 ppm), 0% (0.1 ppm), 13% (1 ppm) and 59% (10 ppm).
Turning to `Cc1cc(C)n2nc(S(=O)(=O)Nc3c(Cl)ccc(C)c3Cl)nc2n1` [Compound 46], the “% NH4-N Remaining After 2 Weeks Incubation” value runs as follows: (0.01 ppm) 50%; (0.1 ppm) 71%; (1 ppm) 88%; (10 ppm) 94%.
On to `Cc1cc(C)n2nc(S(=O)(=O)Nc3c(C)cccc3C(=O)O)nc2n1` [Compound 103], for which the “% NH4-N Remaining After 2 Weeks Incubation” value runs as follows: (0.06 ppm) 0%; (0.25 ppm) 15%; (1 ppm) 43%; (4 ppm) 53%.
For `Cc1cc(C)n2nc(S(=O)(=O)Nc3ccccc3S(=O)(=O)C(F)(F)F)nc2n1` [Compound 57], in that order: 2%, 17%, 45% and 69%.
On to `Cc1cc(C)n2nc(S(=O)(=O)Nc3ccccc3[S+]([O-])C(F)(F)C(F)F)nc2n1` (stereo not drawn) [Compound 60], for which the “% NH4-N Remaining After 2 Weeks Incubation” value reads like this: (0.6 ppm) 0%; (1.25 ppm) 0%; (2.5 ppm) 8%; (5 ppm) 41%; (10 ppm) 58%.
Turning to `CSc1ccccc1NS(=O)(=O)c1nc2nc(C)ccn2n1` [Compound 142], the “% NH4-N Remaining After 2 Weeks Incubation” value is reported as 0% (0.01 ppm), 5% (0.1 ppm), 62% (1 ppm) and 98% (10 ppm).
On to `COC(=O)c1cc2ccccc2cc1NS(=O)(=O)c1nc2nc(C)cc(C)n2n1` [Compound 245], for which the “% NH4-N Remaining After 2 Weeks Incubation” value is, setting by setting: (0.06 ppm) 0%; (0.25 ppm) 0%; (1 ppm) 0%; (4 ppm) 30%.
Regarding `Cc1cc(C)n2nc(S(=O)(=O)Nc3ccncc3)nc2n1` [Compound 253], the “% NH4-N Remaining After 2 Weeks Incubation” value is, setting by setting: (0.01 ppm) 0%; (0.1 ppm) 5%; (1 ppm) 0%; (10 ppm) 17%.
For `Cc1cc(C)n2nc(S(=O)(=O)Nc3ccccc3S(=O)(=O)c3ccccc3)nc2n1` [Compound 96], the “% NH4-N Remaining After 2 Weeks Incubation” value turned out to be 0% (0.6 ppm); 0% (1.25 ppm); 7% (2.5 ppm); 42% (5 ppm); 100% (10 ppm).
In the case of `Cc1cc(C)n2nc(S(=O)(=O)Nc3ncccc3Cl)nc2n1` [Compound 252], the “% NH4-N Remaining After 2 Weeks Incubation” value was 0% (0.01 ppm), 0% (0.1 ppm), 38% (1 ppm) and 82% (10 ppm).
For the molecule `Cc1c(C(=O)O)cnc2nc(S(=O)(=O)Nc3c(Cl)cccc3Cl)nn12` [Compound 224], the “% NH4-N Remaining After 2 Weeks Incubation” value is, setting by setting: (0.06 ppm) 1%; (0.25 ppm) 0%; (1 ppm) 27%; (4 ppm) 63%.
